The values below come from article PMC3505660, “Application of Collagen-Model Triple-Helical Peptide-Amphiphiles for CD44-Targeted Drug Delivery Systems” (Journal of Drug Delivery, 2012).

The test system of data set [1] is M14#5 human metastatic melanoma cells. Put plainly: CellTiter-Glo Luminescent Cell Viability Assay (cytotoxicity), M14#5. The class given is cell-based. Conditions: M14#5 cells, [DOX] = 100 μM, 3 h exposure. The source says: (§1) The M14#5 and M14#11 human metastatic melanoma cell lines were generously provided by Dr. Barbara Mueller. The BJ foreskin fibroblasts […] were obtained from the American Type Culture Collection (ATCC) (Cat# CRL-2522). Cell media (Cat# MT10-013-CV) and trypan blue (Cat# ICN1691049) were obtained from Fisher Scientific or CellGro, and all reagents required for cell culture were purchased from Invitrogen. Cells were maintained in DMEM supplemented with 10% fetal bovine serum (Cat# 10437028), 50 units/mL penicillin, and 0.05 mg/mL streptomycin (Cat# 15140163). Cells were cultured with complete medium at 37°C in a humidified atmosphere of 5% CO2 in air. For all experiments cells were harvested from subconfluent (<80%) cultures using a trypsin-EDTA (Cat# 15400054) solution and then resuspended in fresh medium. Preparations of cells with a >90% viability, as determined by trypan blue exclusion, were used.
(§2) The cytotoxicity of all liposomal systems used in this study, as well as free DOX, on the cells was determined using the CellTiter-Glo Luminescent Cell Viability Assay. The M14#5, M14#11, and BJ cells were plated on 96-well tissue cultured treated plates corning at a density of 5 × 10^3 cells per well and incubated for 24 h at 37°C and 5% CO2. The culture medium was then replaced with 100 μL of medium containing various concentrations of each liposomal system or free DOX. […]
(Cellular ATP, detected with luciferase, serves as a proxy for viable cell number.)

On the set-up of data set [2]: method as in PMID 8313389, PMID 7865538. Conditions: cited from earlier work. The text has this:
Potential DOX delivery in vivo, however, is quite different than in vitro when one considers circulation times. […] In ...

Another data set deals with BJ foreskin fibroblasts. Put plainly: CellTiter-Glo Luminescent Cell Viability Assay (cytotoxicity), BJ. In kind it is cell-based, human. As to conditions: BJ cells, [DOX] = 100 μM, 3 h exposure.
Text: as §1, §2

Take `COc1cccc2c1C(=O)c1c(O)c3c(c(O)c1C2=O)C[C@@](O)(C(=O)CO)C[C@@H]3O[C@H]1C[C@H](N)[C@H](O)[C@H](C)O1` [free DOX, doxorubicin]: the cell viability (in data set [1]; with BJ foreskin fibroblasts) was 50–60% each time. For the same compound, in data set [2], the “clearance of free DOX relative to DOX encapsulated within PEGylated liposomes” value is given as 450 times faster.
